According to US10835540B2, “Pharmaceutical use” (Lucolas-M.D. Ltd., priority 2011, dated 2020):

Test system: mastodynia
Test: Previous prescriptions for pre-menstrual breast pain (anamnesis, Example 8)
Assay type: in vivo, human
Details: Example 8 patient; for effect of previous prescription on breast pain symptoms: 'The same applies' in b116 refers to 'basically without any effect'
Description: Pre-menstrual syndrome with symptoms of strong pain in both breasts since puberty. Dynamic increase of the symptoms with extremely strong tactile sensitivity, strong sensation of swelling and tension with pain symptoms diffusely radiating into the chest and the arms, which becomes virtually unbearable until the beginning of the menstruation. Unable to work because of these conditions for 2-4 days per month since 3 years. Intimate touching not possible for 14 days per month due to the pathologic tactile hyper-sensitivity. Fading-away of the symptoms only 7-10 days after the beginning of the menstruation.

Row | Compound | effect of previous prescription on breast pain symptoms | effect on breast pain symptoms (20 mg) | side-effects (20 mg, mainly cardiovascular, led to quitting the therapy)
1 | CC(C)C[C@H]1C(=O)N2CCC[C@H]2[C@]2(O)O[C@](NC(=O)[C@@H]3C=C4c5cccc6[nH]c(Br)c(c56)C[C@H]4N(C)C3)(C(C)C)C(=O)N12 [Bromocriptin] | The same applies |  | 
2 | CC/C(=C(\c1ccccc1)c1ccc(OCCN(C)C)cc1)c1ccccc1 [Tamoxifen] |  | considerable alleviation of the symptoms | uncontrolled increase of blood pressure
3 | C#C[C@]1(O)CC[C@H]2[C@@H]3CCC4=Cc5oncc5C[C@]4(C)[C@H]3CC[C@@]21C [Danazol] | The same applies |  | 
